ChEMBL document CHEMBL2074386, “Saquinavir, an HIV protease inhibitor, is transported by P-glycoprotein” (J Pharmacol Exp Ther, 1998)

Key:
[1] = target: T1, ATP-dependent translocase ABCB1 (Homo sapiens, UniProt P08183); experiment: TP_TRANSPORTER: transepithelial transport (basal to apical) in HCT-8 cells; type: functional, cell-based
[2] = target: T1, ATP-dependent translocase ABCB1; experiment: TP_TRANSPORTER: inhibition of Rhodamine 123 transepithelial transport (basal to apical) (R123: 13 uM, Saquinavir: 20uM) in HCT-8 cells; type: functional, cell-based; settings: hct-8, 20 µM

T1 sequence (P08183 whole entry): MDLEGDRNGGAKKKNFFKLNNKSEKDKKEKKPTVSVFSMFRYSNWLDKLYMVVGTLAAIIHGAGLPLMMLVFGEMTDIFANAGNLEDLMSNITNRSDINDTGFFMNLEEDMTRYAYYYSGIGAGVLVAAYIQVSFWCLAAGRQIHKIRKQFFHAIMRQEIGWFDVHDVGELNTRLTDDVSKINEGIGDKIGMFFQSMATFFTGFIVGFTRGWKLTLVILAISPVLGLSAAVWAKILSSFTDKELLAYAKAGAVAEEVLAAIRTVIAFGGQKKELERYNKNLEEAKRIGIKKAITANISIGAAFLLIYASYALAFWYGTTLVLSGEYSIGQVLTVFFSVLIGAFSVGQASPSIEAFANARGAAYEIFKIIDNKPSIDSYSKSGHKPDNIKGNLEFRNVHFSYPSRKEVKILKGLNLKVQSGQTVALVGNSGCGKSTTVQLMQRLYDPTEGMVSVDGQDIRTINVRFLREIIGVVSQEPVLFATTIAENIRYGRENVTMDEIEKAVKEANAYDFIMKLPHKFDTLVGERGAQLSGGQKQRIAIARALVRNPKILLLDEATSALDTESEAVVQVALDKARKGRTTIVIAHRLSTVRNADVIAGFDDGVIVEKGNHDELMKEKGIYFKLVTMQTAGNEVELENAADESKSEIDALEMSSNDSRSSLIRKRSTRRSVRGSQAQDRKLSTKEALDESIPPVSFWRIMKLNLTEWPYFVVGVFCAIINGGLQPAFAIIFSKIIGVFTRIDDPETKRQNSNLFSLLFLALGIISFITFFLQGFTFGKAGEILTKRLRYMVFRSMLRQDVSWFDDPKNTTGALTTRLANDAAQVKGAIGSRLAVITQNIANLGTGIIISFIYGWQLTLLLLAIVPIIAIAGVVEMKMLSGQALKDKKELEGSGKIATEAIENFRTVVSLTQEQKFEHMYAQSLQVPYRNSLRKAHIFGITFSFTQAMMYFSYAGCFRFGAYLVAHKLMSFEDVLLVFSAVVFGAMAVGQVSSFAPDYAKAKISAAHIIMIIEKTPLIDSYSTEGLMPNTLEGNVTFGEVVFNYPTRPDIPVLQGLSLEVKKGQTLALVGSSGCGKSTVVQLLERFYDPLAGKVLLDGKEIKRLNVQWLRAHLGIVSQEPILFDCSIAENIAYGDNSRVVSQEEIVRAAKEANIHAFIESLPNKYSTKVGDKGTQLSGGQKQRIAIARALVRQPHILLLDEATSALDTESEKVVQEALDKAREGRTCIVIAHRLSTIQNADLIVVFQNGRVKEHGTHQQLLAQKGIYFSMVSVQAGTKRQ

Row | Activity [1] | Structure (SMILES) | Activity [2]
1 | substrate [+] | CC(C)(C)NC(=O)[C@@H]1C[C@@H]2CCCC[C@@H]2CN1C[C@@H](O)[C@H](Cc1ccccc1)NC(=O)[C@H](CC(N)=O)NC(=O)c1ccc2ccccc2n1 | inhibitor [(at a rough estimate) 45 % of control]
2 | substrate [+] | COC(=O)c1ccccc1-c1c2ccc(=N)cc-2oc2cc(N)ccc12.Cl [RHODAMINE123] | –
